Data as given in US11415579B2, “Assay for measuring a rate of reaction between a target and a ligand candidate” (Imperial College Innovations Ltd., priority 2016, dated 2022).

Legend:
[1] = Kinetic thiol consumption assay with model thiol glutathione; assay type: physicochemical; design: Rate constant with glutathione (k(GSH)): unit not given here; details: for Rate constant with glutathione (k(GSH)): 500 μM ligand, 5 μM thiol, phosphate buffer pH 8; for Rate constant with Glutathione: Protein: Glutathione, cysteine position NA, in h-1
Method in brief: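 Rate constants for acrylamide reaction with 5 μM glutathione come from first-order exponential fits of normalized fluorescence decay (ex 380, em 470 nm). Reactions run in degassed phosphate buffer at pH 8 containing TCEP beads, room temperature.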

[2] = target: T1, human cyclin-dependent kinase 2 (Cdk2) (Homo sapiens, UniProt P24941); assay: Kinetic thiol consumption assay with wild type Cdk2 (C177); assay type: binding; design: key to Rate enhancement, Cdk2 WT: k(Cdk2) divided by k(model thiol); Rate constant with Cdk2 (k(Cdk2)): unit not given here; details: for Rate constant with Cdk2 (k(Cdk2)): 500 μM ligand, 5 μM thiol, phosphate buffer pH 8; for Rate enhancement, Cdk2 WT: no additional mutations; for Rate constant with Cdk2 WT: Protein: Cdk2, cysteine position WT, in h^-1; for k(Cdk2)/k(Cdk2_mut) rate enhancement: model thiol Cdk2[C177A, F80C, K278C]; for k(Cdk2)/k(GSH) rate enhancement: model thiol glutathione
T1 construct: poly-histidine; made in house; host or cells: E. coli
Method in brief: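 His-tagged human Cdk2 from E. coli (sole surface cysteine C177) or a model thiol, each 5 μM in degassed phosphate buffer pH 8 with immobilized TCEP, reacted with acrylamides at room temperature. Fluorescence (ex 380/em 470) normalized to DMSO/thiol control over time; first-order rate constants, Cdk2 rate divided by model-thiol rate.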

[3] = target: T2, Cdk2[C177A, F80C, K278C] (Homo sapiens, UniProt P24941, C177A/F80C/K278C); assay: Kinetic thiol consumption assay with mutant Cdk2 as model thiol; assay type: binding; design: unit not given here; details: 500 μM ligand, 5 μM thiol, phosphate buffer pH 8
T2 construct: poly-histidine; made in house; host or cells: E. coli
Method: A library of 120 acrylamides was screened against a) human cyclin-dependent kinase 2 (Cdk2, which contains one surface exposed cysteine residue—C177), prepared by cloning cDNA into the pRSETA bacterial expression vector to generate a poly-histidine tagged Cdk2 fusion that was purified from E. coli using standard techniques, and b) a model thiol (specific details are given below). The structures of these 120 acrylamides are set out in Table 1, above.
To wells containing 150 μL thiol (Cdk2 or model thiol) (5 μM) in degassed phosphate buffer (pH 8) was added immobilized TCEP beads (2% v/v).
After incubation of the fluorescence plates for 1 hour at room temperature, fluorescence measurements (excitation/emission of 380/470 nm) were taken on a PerkinElmer EnVision multilabel plate reader and processed with EnVision Workstation version 1.12.
Fluorescence measurements were normalized against a DMSO/thiol only control and plotted against time.
Rate constants were calculated using GraphPad software Prism version 6 by fitting a first order exponential decay to the data. The rate constant for each acrylamide with Cdk2 was divided by the rate constant for that fragment with the model thiol to provide the rate enhancement for each ligand candidate.
The model thiol used in Example 2 is a mutant form of human Cdk2 (C177A, F80C, K278C) which contains two engineered surface exposed cysteine residues. Mutations were introduced by site-directed mutagenesis and the resulting cDNA was cloned into the pRSETA bacterial expression vector to generate a poly-histidine tagged Cdk2 fusion that was purified from E. coli using standard techniques.

[4] = target: T3, Cdk2(C177A, F80C) (Homo sapiens, UniProt P24941, C177A/F80C); assay: Kinetic thiol consumption assay with Cdk2 mutant F80C, incl. kobs versus concentration (Kd, k2); assay type: binding; design: key to Rate enhancement, Cdk2 F80C: Cdk2 rate constant divided by model-thiol rate constant; details: additional mutation C177A; for Rate constant with Cdk2 F80C: Protein: Cdk2, cysteine position F80C, in h^-1
T3 construct: poly-histidine; made in house; host or cells: E. coli
Method in brief: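 His-tagged Cdk2(C177A/F80C) from E. coli or model thiol, 5 μM in degassed phosphate buffer pH 8 with TCEP beads, reacted with acrylamide ligands; fluorescence (ex/em 380/470 nm) normalized to DMSO control and fitted to first-order decay for kobs. Kd and k2 obtained from hyperbolic fit of kobs versus ligand concentration.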

[5] = target: T4, Cdk2(H71C) (C177A) (Homo sapiens, UniProt P24941, C177A/H71C); assay: Kinetic thiol consumption assay with Cdk2 mutant H71C; assay type: binding; design: key to Rate enhancement, Cdk2 H71C: rate constant with Cdk2 ÷ rate constant with model thiol (fold); details: additional mutation C177A; for Rate constant with Cdk2 H71C: Protein: Cdk2, cysteine position H71C, in h^-1
T4 construct: poly-histidine; made in house; host or cells: E. coli
Method in brief: (§1)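 His-tagged single-surface-cysteine Cdk2 mutants (C177A background) from E. coli, 5 μM in degassed phosphate buffer pH 8, pre-treated with immobilized TCEP beads. Fluorescence (ex/em 380/470 nm) read after 1 h at room temperature, normalized to DMSO/thiol-only control; first-order decay fits gave rate constants, divided by model-thiol rate for rate enhancement.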

[6] = target: T5, Cdk2(S276C) (C177A) (Homo sapiens, UniProt P24941, C177A/S276C); assay: Kinetic thiol consumption assay with Cdk2 mutant S276C; assay type: binding; design: key to Rate enhancement, Cdk2 S276C: rate constant with Cdk2 ÷ rate constant with model thiol (fold); details: additional mutation C177A; for Rate constant with Cdk2 S276C: Protein: Cdk2, cysteine position S276C, in h^-1
T5 construct: poly-histidine; made in house; host or cells: E. coli
Method in brief: as §1

[7] = target: T6, Cdk2(N272C) (C177A) (Homo sapiens, UniProt P24941, C177A/N272C); assay: Kinetic thiol consumption assay with Cdk2 mutant N272C; assay type: binding; design: key to Rate enhancement, Cdk2 N272: rate constant with Cdk2 ÷ rate constant with model thiol (fold); details: for Rate enhancement, Cdk2 N272: Cdk2 N272, additional mutation C177A; for Rate constant with Cdk2 N272C: Protein: Cdk2, cysteine position N272C, additional mutation C177A, in h^-1
T6 construct: poly-histidine; made in house; host or cells: E. coli
Method in brief: as §1

[8] = target: T7, Cdk2(T182C) (C177A) (Homo sapiens, UniProt P24941, C177A/T182C); assay: Kinetic thiol consumption assay with Cdk2 mutant T182C; assay type: binding; design: key to Rate enhancement, Cdk2 T182C: rate constant with Cdk2 ÷ rate constant with model thiol (fold); details: additional mutation C177A; for Rate constant with Cdk2 T182C: Protein: Cdk2, cysteine position T182C, in h^-1
T7 construct: poly-histidine; made in house; host or cells: E. coli
Method in brief: as §1

[9] = target: T8, Cdk2(R122C) (C177A) (Homo sapiens, UniProt P24941, C177A/R122C); assay: Kinetic thiol consumption assay with Cdk2 mutant R122C; assay type: binding; design: key to Rate enhancement, Cdk2 R122C: rate constant with Cdk2 ÷ rate constant with model thiol (fold); details: additional mutation C177A
T8 construct: poly-histidine; made in house; host or cells: E. coli
Method in brief: as §1

[10] = target: T9, Cdk2(S181C) (C177A) (Homo sapiens, UniProt P24941, C177A/S181C); assay: Kinetic thiol consumption assay with Cdk2 mutant S181C; assay type: binding; design: key to Rate enhancement, Cdk2 S181C: rate constant with Cdk2 ÷ rate constant with model thiol (fold); details: additional mutation C177A; for Rate constant with Cdk2 S181C: Protein: Cdk2, cysteine position S181C, in h^-1
T9 construct: poly-histidine; made in house; host or cells: E. coli
Method in brief: as §1

Rate constant with Cdk2 (k(Cdk2)) [2] | Rate enhancement, Cdk2 WT [2] | Rate constant with Cdk2 WT [2] | k(Cdk2)/k(Cdk2_mut) rate enhancement [2] | k(Cdk2)/k(GSH) rate enhancement [2] | Rate constant with Cdk2[C177A, F80C, K278C] (k(Cdk2_mut)) [3] | Rate enhancement, Cdk2 F80C [4] | Rate constant with Cdk2 F80C [4] | Rate enhancement, Cdk2 H71C [5] | Rate constant with Cdk2 H71C [5] | Rate enhancement, Cdk2 S276C [6] | Rate enhancement, Cdk2 N272 [7] | Rate constant with Cdk2 N272C [7] | Rate enhancement, Cdk2 T182C [8] | Rate constant with Cdk2 T182C [8] | Rate enhancement, Cdk2 R122C [9] | Rate enhancement, Cdk2 S181C [10] | Rate constant with Cdk2 S181C [10] | Structure (SMILES) | Rate constant with glutathione (k(GSH)) [1] | Rate constant with Glutathione [1] | further results
0.00121 | 0.7866 | 0.001861 | 0.3031 | 0.4134 | 0.00398 | 2.644 | 0.006255 | 0.538 | 0.001273 | 1.179 | 0.9112 | 0.002156 | 0.8711 | 0.002061 | 0 | 0.5182 | 0.001226 | C=CC(=O)NCc1ccc(C(=O)OC)cc1 [BN-65] | 0.00292 | 0.002366 | Rate constant with Cdk2 S276C [6]: 0.002789
0.00089 | 0.9753 | 0.001459 | 0.2541 | 0.5565 | 0.0035 | 2.336 | 0.003494 | 0.7553 | 0.00113 | 0 | 1.553 | 0.002323 | 3.479 | 0.005204 | 0 | 0.8476 | 0.001268 | C=CC(=O)NCc1ccc(-c2csnn2)cc1 [BN-66] | 0.0016 | 0.001496 | 
0.1611 | 3.342 | 0.1611 | 0.9764 |  | 0.165 | 1.938 | 0.09345 | 0.5613 | 0.02706 | 0.934 | 0.1844 | 0.008888 | 5.018 | 0.2419 | 0.491 | 0.5323 | 0.02566 | C=CC(=O)Nc1ccccc1C#N [EL-1178] |  |  | Rate constant with Cdk2 S276C [6]: 0.04503; Rate constant with Cdk2 R122C ([9]; Protein: Cdk2, cysteine position R122C, in h-1): 0.02367
